The numbers were not newly measured in patent US20110135569A1, “METHOD FOR THERAPEUTIC ADMINISTRATION OF RADIONUCLEOSIDES” (Peak Biosciences Inc., priority 2007, published 2011), which cites them from elsewhere.

Molecules are shown by their SMILES.

The test system of data set [1] is replicating cancer cells. Conditions: low picomolar range, e.g. value.
For data set [2] the following is noted: human subjects; locally injected or intra-arterially infused.

As to `O=c1[nH]c(=O)n([C@H]2C[C@H](O)[C@@H](CO)O2)cc1[125I]` [^125IUDR, 5-[^125I]-iodouridine 2′-deoxyribonucleoside], the “concentration able to destroy the chromosomes of replicating cancer cells” value in data set [1] is 5 picomoles/liter. The plasma half-life entry in data set [2] is recorded as “less than 5 minutes”.
